In ChEMBL document CHEMBL1201862, “PubChem BioAssay data set” (2004):
Activity calls are given as the source filed them.

Key:
[1] = target: T1, Small ubiquitin-related modifier 1 (Homo sapiens, UniProt P63165); experiment: inhibitors of SUMO1 peptide binding, dose response, biochemical, fluorescence polarization, uHTS hits (AID 624382); format: functional; details: read-out: IC50_Mean
[2] = target: T1, Small ubiquitin-related modifier 1; experiment: inhibitors of SUMO1 partner interactions, dose response, biochemical, FRET (AID 624383); format: functional; details: read-out: IC50_Mean
[3] = target: Melanocortin receptor 4 (Homo sapiens, UniProt P32245); experiment: MC4R antagonist potency on cAMP, dose response, cell-based, TR-FRET, biased antagonists (AID 602298); format: functional;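 note: antagonist potency against agonist-stimulated cAMP production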
Chain of Melanocortin receptor 4 (P32245 whole entry): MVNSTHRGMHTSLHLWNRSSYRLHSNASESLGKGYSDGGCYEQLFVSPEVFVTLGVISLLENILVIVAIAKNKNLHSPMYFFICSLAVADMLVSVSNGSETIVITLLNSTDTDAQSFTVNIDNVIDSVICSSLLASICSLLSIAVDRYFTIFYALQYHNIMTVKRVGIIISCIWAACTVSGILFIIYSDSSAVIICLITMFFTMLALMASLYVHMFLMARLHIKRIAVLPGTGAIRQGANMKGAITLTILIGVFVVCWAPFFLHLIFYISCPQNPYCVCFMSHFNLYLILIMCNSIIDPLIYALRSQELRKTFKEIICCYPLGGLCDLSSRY

[4] = target: T2, Corticotropin-releasing factor receptor 2/Corticotropin-releasing factor-binding protein (Homo sapiens, UniProt P24387+Q13324); experiment: Dose Response confirmation of uHTS hits for small molecule antagonists of the CRF-binding protein and CRF-R2 receptor complex.; format: functional; details: read-out: IC50_Mean
T2 sequence (Q13324 whole entry): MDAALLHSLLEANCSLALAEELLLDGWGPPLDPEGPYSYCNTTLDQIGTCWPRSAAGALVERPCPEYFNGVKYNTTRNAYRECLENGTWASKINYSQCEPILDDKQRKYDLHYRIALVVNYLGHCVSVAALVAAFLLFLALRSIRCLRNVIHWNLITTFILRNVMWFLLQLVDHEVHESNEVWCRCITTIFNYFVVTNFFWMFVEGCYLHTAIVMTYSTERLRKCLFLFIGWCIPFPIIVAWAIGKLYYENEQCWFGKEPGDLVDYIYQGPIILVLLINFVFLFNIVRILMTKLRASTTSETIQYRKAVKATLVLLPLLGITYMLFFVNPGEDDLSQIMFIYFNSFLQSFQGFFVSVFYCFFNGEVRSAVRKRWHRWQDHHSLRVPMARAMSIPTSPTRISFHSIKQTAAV
T2 sequence (P24387 whole entry): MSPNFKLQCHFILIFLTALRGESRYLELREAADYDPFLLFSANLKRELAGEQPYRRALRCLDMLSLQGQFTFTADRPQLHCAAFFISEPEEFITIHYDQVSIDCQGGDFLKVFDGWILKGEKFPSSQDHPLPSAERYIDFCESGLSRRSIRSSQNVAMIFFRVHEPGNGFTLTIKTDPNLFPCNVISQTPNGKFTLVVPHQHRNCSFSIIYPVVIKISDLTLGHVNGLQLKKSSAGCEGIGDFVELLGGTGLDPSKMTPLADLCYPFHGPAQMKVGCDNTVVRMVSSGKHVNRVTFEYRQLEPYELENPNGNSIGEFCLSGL

[5] = target: T2, Corticotropin-releasing factor receptor 2/Corticotropin-releasing factor-binding protein; experiment: activators of CRF receptor 2 with binding protein – uHTS hits, confirmation (AID 602473); format: functional; details: read-out: EC50_Mean
[6] = nonselective inhibitors of cellular cAMP signaling, dose response, counter-screen for MC4R biased antagonist project, cell-based, TR-FRET cAMP detection (AID 602305); format: functional;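 note: U2OS cells stimulated with forskolin near its EC80 as the cAMP inducer; potency is for inhibition of forskolin-stimulated cAMP signaling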
[7] = CRF-BP/CRF-R2 complex antagonists, dose response, cell-based, uHTS hits, 384-well (AID 651639); format: functional, Homo sapiens; details: read-out: IC50_Mean
[8] = target: T3, Replicative DNA helicase DnaB (Mycobacterium tuberculosis, UniProt P9WMR3); experiment: DnaB intein splicing inhibitors, dose response, biochemical, cell-free fluorescence (AID 449749); format: functional
T3 sequence (P9WMR3 whole entry): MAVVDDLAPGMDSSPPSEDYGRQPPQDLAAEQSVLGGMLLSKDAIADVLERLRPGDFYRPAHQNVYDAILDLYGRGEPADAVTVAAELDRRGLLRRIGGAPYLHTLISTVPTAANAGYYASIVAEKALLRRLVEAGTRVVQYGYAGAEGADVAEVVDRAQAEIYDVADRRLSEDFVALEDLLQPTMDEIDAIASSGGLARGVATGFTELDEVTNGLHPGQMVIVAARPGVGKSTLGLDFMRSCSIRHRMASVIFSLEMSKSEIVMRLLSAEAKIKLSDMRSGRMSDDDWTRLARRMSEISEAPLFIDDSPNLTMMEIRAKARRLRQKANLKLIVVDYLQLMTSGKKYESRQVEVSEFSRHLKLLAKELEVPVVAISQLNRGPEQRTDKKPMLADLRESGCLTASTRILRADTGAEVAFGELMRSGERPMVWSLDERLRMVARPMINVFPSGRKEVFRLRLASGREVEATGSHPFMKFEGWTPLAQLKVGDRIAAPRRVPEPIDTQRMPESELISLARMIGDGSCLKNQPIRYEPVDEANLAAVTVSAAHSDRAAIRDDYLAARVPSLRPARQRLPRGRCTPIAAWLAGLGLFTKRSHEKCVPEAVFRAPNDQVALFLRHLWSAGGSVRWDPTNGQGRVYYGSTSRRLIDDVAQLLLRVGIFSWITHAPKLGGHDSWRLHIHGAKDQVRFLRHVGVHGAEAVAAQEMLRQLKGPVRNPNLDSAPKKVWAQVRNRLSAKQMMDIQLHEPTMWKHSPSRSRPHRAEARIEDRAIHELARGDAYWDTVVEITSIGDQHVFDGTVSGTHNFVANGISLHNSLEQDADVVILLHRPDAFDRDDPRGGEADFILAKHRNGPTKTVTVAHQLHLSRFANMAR

[9] = target: T4, Protein RecA (Mycobacterium tuberculosis, UniProt P9WHJ3); experiment: Fluorescence Cell-Free Homogeneous Dose Retest to Identify Inhibitors of RecA-Intein Splicing Activity. [Related pubchem assays (depositor defined):AID2097, AID2223, AID489010, AID492950]; format: functional
T4 sequence (P9WHJ3 whole entry): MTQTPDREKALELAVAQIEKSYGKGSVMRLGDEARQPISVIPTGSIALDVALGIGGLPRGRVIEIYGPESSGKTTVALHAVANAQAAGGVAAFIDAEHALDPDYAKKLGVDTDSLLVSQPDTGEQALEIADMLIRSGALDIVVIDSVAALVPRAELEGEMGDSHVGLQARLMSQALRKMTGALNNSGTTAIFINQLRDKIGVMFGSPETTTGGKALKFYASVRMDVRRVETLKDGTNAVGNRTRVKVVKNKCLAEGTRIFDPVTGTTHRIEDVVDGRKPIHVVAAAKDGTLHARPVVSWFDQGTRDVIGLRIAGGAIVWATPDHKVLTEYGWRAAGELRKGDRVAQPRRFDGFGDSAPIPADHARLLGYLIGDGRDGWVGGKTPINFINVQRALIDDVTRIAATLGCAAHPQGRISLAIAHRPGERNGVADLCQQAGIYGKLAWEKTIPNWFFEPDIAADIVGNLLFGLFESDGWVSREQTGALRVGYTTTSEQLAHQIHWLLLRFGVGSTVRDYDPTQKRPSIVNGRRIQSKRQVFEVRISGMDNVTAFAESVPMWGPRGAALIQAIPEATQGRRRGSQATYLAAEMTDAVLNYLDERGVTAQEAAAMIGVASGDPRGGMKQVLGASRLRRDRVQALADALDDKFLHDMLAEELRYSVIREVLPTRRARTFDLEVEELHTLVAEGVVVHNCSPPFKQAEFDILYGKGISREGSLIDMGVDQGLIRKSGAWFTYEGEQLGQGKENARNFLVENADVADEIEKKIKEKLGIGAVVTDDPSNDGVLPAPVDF

[10] = target: Ras and Rab interactor 1/Tyrosine-protein kinase ABL1 (Homo sapiens, UniProt P00519+Q13671); format: functional;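 note: biochemical TR-FRET dose-response test measuring inhibition of binding between Rin1 and Abl proteins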
Chain of Ras and Rab interactor 1/Tyrosine-protein kinase ABL1 (P00519 whole entry): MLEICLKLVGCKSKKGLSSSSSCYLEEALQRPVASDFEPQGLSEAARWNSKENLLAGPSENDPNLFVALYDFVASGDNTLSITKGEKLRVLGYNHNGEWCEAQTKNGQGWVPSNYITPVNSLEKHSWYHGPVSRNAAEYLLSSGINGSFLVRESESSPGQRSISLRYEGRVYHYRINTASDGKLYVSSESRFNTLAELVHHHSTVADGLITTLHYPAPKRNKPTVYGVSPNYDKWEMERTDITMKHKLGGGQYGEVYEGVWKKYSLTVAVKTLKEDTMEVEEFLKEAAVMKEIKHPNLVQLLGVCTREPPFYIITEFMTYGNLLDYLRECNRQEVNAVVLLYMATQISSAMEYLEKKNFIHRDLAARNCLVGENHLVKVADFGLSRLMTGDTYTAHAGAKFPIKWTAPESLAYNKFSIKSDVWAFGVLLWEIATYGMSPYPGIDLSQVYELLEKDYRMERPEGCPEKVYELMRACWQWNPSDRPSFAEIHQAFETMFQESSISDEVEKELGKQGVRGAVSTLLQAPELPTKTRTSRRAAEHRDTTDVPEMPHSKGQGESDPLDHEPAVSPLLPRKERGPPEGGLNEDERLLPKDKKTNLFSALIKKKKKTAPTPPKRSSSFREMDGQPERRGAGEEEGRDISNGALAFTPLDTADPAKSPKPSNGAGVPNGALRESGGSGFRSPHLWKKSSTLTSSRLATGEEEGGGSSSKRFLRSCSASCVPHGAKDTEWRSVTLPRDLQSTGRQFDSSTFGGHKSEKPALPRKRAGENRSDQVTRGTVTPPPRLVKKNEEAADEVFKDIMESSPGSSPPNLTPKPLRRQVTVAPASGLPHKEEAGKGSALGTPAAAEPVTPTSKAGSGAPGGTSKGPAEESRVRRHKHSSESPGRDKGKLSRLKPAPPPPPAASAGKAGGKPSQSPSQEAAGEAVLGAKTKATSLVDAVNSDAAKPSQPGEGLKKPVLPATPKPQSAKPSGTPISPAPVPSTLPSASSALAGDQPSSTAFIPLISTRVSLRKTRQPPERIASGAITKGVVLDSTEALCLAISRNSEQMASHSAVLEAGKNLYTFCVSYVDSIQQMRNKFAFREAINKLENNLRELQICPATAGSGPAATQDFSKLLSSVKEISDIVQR
Chain of Ras and Rab interactor 1/Tyrosine-protein kinase ABL1 (Q13671 whole entry): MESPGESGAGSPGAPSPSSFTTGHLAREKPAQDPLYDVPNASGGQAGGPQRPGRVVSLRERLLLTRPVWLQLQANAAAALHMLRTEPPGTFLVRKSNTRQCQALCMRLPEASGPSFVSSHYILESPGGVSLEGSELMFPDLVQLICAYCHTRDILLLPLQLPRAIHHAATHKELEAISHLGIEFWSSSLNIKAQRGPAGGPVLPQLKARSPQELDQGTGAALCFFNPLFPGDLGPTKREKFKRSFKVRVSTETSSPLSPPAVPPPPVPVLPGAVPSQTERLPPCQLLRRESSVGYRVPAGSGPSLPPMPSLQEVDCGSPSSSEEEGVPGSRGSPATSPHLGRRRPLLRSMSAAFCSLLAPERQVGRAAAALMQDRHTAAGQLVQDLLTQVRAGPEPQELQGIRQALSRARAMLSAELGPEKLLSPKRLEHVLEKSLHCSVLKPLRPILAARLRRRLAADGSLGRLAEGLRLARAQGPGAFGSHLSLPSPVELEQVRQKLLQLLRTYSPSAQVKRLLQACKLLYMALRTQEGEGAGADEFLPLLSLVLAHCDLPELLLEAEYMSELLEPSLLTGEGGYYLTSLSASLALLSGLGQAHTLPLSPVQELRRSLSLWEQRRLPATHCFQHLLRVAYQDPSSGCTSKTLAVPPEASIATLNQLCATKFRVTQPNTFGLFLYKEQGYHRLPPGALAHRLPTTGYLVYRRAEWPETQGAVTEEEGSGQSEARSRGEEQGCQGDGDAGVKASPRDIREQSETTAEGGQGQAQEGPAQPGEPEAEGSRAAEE

[11] = target: T5, Insulin-degrading enzyme (Homo sapiens, UniProt P14735); experiment: activators of recombinant IDE enzyme, dose response, counter-screen for IDE activator project, biochemical, fluorescence polarization (AID 588681)
T5 sequence (P14735 whole entry): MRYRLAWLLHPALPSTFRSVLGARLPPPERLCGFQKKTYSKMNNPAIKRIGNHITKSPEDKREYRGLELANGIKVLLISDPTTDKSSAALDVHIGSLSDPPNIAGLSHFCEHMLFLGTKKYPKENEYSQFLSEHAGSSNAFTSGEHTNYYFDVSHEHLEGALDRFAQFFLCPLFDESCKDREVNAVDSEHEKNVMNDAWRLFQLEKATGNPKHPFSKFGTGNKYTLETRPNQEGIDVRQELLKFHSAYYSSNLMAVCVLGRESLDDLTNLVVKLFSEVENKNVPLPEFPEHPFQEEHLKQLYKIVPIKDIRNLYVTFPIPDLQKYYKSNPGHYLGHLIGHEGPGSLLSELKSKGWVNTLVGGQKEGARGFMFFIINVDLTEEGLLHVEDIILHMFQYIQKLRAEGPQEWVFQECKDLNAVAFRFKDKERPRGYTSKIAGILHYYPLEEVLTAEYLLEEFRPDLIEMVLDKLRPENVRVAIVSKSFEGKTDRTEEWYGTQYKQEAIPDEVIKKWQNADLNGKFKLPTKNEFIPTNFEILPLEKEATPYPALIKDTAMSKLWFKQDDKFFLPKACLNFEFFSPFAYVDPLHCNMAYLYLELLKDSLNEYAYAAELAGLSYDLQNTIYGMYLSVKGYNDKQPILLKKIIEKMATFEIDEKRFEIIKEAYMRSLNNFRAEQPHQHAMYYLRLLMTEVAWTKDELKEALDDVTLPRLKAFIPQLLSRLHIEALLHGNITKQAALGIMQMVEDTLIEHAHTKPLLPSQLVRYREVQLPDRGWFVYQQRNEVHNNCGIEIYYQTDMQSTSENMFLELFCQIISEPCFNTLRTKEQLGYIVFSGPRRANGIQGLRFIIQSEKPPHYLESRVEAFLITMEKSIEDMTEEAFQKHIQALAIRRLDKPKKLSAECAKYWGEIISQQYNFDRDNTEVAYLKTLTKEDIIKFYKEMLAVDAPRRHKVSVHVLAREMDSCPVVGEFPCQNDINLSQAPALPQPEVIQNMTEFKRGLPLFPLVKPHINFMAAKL

[12] = target: T5, Insulin-degrading enzyme; experiment: activators of endogenous IDE in HEK cells, dose response, cell-based, fluorescence polarization (AID 588439); format: functional
[13] = system: HEK293; experiment: HEK cell cytotoxicity by LDH release, dose response, cytotoxicity control for IDE activator project, fluorescence, HEK cells (AID 588440); format: functional, cell-based; details: Homo sapiens;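 note: cytotoxicity by LDH release measuring loss of membrane integrity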
[14] = system: HEK293; experiment: optical interference in Abeta FP readout, dose response, artefact control for IDE activator project, biochemical, fluorescence polarization (AID 588442); format: functional, cell-based; details: Homo sapiens
[15] = target: Hepatocyte nuclear factor 4-alpha (Homo sapiens, UniProt P41235); format: functional, cell-based;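 note: biochemical luminescence-based dose-response counterscreen measuring inhibition of HNF4 dimerization, run alongside a screen for blockers of ABHD5–perilipin-5 interaction; split luciferase complementation of HNF4 fusion proteins in cell lysate measuring dimerization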
Chain of Hepatocyte nuclear factor 4-alpha (P41235 whole entry, the tested form may be a part): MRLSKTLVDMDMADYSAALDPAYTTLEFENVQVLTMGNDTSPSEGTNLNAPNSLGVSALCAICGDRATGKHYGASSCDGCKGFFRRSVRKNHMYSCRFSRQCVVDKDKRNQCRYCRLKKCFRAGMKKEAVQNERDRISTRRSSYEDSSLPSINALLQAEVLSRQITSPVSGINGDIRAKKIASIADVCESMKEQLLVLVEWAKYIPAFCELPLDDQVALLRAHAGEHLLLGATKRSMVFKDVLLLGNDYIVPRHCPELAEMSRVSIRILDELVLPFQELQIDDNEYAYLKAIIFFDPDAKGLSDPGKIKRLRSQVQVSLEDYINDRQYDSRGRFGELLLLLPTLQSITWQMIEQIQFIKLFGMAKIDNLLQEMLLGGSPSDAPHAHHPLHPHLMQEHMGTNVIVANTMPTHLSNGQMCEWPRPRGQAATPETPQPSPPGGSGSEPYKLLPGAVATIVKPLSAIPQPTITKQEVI

[16] = target: T6, Aurora kinase A (Homo sapiens, UniProt O14965); format: functional;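 note: value from the Navigating the Kinome kinase panel profiling, panel entry STK6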
T6 sequence (O14965 whole entry): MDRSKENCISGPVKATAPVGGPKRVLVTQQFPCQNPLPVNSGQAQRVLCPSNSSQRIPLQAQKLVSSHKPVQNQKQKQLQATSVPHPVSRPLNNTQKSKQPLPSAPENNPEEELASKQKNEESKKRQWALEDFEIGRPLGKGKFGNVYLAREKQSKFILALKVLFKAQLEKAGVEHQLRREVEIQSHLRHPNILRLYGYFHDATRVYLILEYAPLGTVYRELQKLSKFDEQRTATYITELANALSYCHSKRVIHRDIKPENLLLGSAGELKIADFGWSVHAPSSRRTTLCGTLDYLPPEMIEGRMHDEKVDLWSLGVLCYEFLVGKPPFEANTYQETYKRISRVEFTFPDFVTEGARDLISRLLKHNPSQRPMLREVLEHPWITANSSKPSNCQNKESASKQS

[17] = target: Aurora kinase B (Homo sapiens, UniProt Q96GD4); format: functional
Chain of Aurora kinase B (Q96GD4 whole entry): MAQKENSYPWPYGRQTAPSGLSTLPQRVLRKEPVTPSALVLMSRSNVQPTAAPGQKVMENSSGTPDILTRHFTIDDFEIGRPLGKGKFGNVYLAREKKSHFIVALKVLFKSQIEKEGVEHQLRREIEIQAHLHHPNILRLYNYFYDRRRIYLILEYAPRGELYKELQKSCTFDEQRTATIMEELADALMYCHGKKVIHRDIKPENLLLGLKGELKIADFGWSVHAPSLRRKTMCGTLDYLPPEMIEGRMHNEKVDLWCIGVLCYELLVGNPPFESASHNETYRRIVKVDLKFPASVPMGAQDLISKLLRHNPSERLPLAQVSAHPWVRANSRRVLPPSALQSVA

[18] = target: ALK tyrosine kinase receptor (Homo sapiens, UniProt Q9UM73); format: functional;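 note: ALK tested as one member of a kinase panel screen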
[19] = target: Vascular endothelial growth factor receptor 2 (Homo sapiens, UniProt P35968); format: functional
Chain of Vascular endothelial growth factor receptor 2 (P35968 whole entry): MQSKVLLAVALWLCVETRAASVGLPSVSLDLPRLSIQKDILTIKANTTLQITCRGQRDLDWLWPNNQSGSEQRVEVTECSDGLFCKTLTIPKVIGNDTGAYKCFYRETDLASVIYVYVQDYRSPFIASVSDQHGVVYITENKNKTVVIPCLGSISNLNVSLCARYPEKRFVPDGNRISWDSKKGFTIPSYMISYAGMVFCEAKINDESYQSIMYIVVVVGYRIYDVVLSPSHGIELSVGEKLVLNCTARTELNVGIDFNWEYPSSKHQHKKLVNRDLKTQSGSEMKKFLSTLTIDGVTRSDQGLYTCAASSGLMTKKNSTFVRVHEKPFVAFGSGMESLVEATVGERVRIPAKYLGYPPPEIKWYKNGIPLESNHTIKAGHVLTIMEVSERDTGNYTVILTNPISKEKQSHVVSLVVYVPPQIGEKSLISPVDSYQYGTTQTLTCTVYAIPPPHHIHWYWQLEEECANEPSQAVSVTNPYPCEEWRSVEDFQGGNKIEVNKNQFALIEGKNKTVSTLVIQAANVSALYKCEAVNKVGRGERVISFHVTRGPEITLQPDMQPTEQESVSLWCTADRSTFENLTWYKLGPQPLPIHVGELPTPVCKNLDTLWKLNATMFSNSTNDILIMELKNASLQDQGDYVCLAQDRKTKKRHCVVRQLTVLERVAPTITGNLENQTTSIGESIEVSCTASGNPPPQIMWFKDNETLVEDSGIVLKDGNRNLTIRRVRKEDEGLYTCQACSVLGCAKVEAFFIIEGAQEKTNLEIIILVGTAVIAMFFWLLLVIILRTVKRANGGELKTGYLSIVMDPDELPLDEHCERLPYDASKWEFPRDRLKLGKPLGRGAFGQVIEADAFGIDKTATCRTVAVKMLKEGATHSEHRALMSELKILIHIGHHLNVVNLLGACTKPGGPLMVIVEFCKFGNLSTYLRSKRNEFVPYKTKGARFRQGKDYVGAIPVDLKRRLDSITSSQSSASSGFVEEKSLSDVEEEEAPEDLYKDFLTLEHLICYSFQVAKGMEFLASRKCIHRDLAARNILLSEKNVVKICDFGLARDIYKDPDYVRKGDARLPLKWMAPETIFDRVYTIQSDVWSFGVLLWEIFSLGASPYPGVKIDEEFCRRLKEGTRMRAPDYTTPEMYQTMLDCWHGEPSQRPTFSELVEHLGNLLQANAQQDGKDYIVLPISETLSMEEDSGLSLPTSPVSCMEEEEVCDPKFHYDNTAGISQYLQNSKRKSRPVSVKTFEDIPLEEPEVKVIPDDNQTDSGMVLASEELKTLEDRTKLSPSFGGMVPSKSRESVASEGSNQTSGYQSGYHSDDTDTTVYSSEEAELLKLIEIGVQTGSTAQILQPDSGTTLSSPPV

T1 sequence (P63165 whole entry): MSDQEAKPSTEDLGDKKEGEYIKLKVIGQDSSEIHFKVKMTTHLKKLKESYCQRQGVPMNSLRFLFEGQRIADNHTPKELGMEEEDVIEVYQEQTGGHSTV

CCCCCC(=O)Nc1nc(C)c(-c2csc(Nc3cc(Cl)ccc3C)n2)s1
IC50 [1]: > 66.6 µM (inactive)
IC50 [2]: 10.7 µM (active)

O=C(O)c1cnn(-c2nc(-c3ccc(Cl)c(Cl)c3)cs2)c1C(F)(F)F
IC50 [3]: 5 µM (active)
IC50 [4]: 13.2 µM (active)
EC50 [5]: 43.4 µM (active)
IC50 [6]: > 64.6 µM (inactive)
IC50 [7]: 11 µM (active)

COc1ccc(OC)c(NC(=O)Cc2ccc(NC3=NC4CS(=O)(=O)CC4S3)cc2)c1 (stereo not given)
AC50 [8]: > 380 µM (inactive)
EC50 [9]: > 380 µM (inactive)
IC50 [10]: 14.1 µM (inactive)

NC(=O)c1ccc(SCC(=O)OCC(=O)NCC2CCCCC2)c([N+](=O)[O-])c1
IC50 [3]: > 64.5 µM (inactive)
IC50 [6]: > 64.5 µM (inactive)

COC(=O)c1ccc(COC(=O)c2ccc(-n3cnnn3)cc2)o1
IC50 [10]: 21.1 µM (inactive)

O=C1c2ccccc2C(=O)N1SC1CCCCC1
IC50 [3]: 62 µM (inactive)
IC50 [6]: 63.7 µM (inactive)

CC(OC(=O)CC1CC2CCC1C2)C(=O)Nc1cccc(S(=O)(=O)N2CCOCC2)c1 (stereo not given)
EC50 [11]: > 54.7 µM (inactive)
EC50 [12]: > 54.7 µM (inactive)
IC50 [13]: > 89.2 µM (inactive)
EC50 [14]: > 54.7 µM (inactive)

COc1cc(C(C)=O)ccc1OCc1cn(CC(=O)c2ccc(O)cc2)nn1
IC50 [15]: 5.85 µM (active)

CC1(c2nnc(Cc3ccccc3)o2)CC(c2c(Cl)cccc2Cl)=NO1 (stereo not given)
EC50 [11]: > 54.7 µM (inactive)
EC50 [12]: > 54.7 µM (inactive)
IC50 [13]: > 89.2 µM (inactive)
EC50 [14]: > 55.9 µM (inactive)

CN(C)C(=O)C=Cc1ccc(-c2ccc(NC(=O)Nc3cccc(C(F)(F)F)c3)cc2)c2c(N)n[nH]c12
Ki [16]: 39.8 nM (active)
Ki [17]: 3.16 nM (active)

NC(=O)c1cccc2nc(-c3ccc(-n4ccc(CN5CCCCC5)c4)cc3)[nH]c12
Ki [18]: > 3.16 µM (inactive)
Ki [16]: > 2000 nM (inactive)
Ki [19]: 2 µM (active)
Ki [17]: 39.8 nM (active)
